How the values were obtained:
Format in all cases: in vivo
Settings in all cases: rating 0-100 (0 no damage, 100 complete death), 14 days after application
[1] = test system: upland rice (Oryza sp., var. Tebonnet, RICE); assay: Pre-emerge crop damage, greenhouse screen, RICE
Description: (§1) A standard greenhouse herbicide activity screening system was used to evaluate the herbicidal efficacy and crop safety of these test compounds. Seven broadleaf weed species including redroot pigweed (Amaranthus retroflexus, AMARE), velvetleaf (Abutilon theophrasti, ABUTH), sicklepod (Cassia obtusifolia, CASOB), ivyleaf morningglory (Ipomoea hederacea, IPOHE), lambsquarters (Chenopodium album, CHEAL), common ragweed (Ambrosia artemisiifolia L., AMBEL), and cocklebur (Xanthium strumarium, XANST) were used as test species. Four grass weed species including green foxtail (Setaria viridis, SETVI), barnyardgrass (Echinochloa crus-galli, ECHCG), johnsongrass (Sorghum halepense, SORHA), and large crabgrass (Digitaria sanguinalis, DIGSA) were also used. In addition, three crop species, field corn (Zea mays L., var. Dekalb 527, CORN), soybean (Glycine max L., var. Pella 86, SOY), and upland rice (Oryza sp., var. Tebonnet, RICE) were included.
(§2) All plants were grown in 10 cm square plastic pots which were filled with a sandy loam soil mix. For pre-emerge tests, seeds were planted one day prior to application of the test compounds. For post-emerge tests, seeds were planted 8-21 days prior to the test to allow emergence and good foliage development prior to application of the test substances. At the time of the post-emerge application, plants of all species were usually at the 2-3 leaf stage of development.
(§3) All test compounds were dissolved in acetone and applied to the test units in a volume of 187 l/ha. Test materials were applied at rates ranging from 15 g ai/ha to 1000 g ai/ha using a track sprayer equipped with a TJ8001 E even flow flat fan spray nozzle. Plants were arranged on a shelf so that the top of the canopy (post-emerge) or top of the soil surface (pre-emerge) was 40-45 cm below the nozzle. Pressurized air was used to force the test solution through the nozzle as it was mechanically advanced over the top of all test plants/pots. This application simulates a typical commercial field herbicide application.
(§4) In the post-emerge test, a commercial non-ionic surfactant was also included (0.25% v/v) to enhance wetting of the leaf surfaces of target plants. Immediately after application, test units of the pre-emerge applications were watered at the soil surface to incorporate the test materials.
(§5) At 14 days after application of the test materials, phytotoxicity ratings were recorded. A rating scale of 0-100 was used as previously described in Research Methods in Weed Science, 2nd edition, B. Truelove, Ed., Southern Weed Science Society, Auburn University, Auburn, Ala., 1977. Briefly, “0” corresponds to no damage and “100” corresponds to complete death of all plants in the test unit. This scale was used both to determine efficacy against weed species and damage to crop species. Herbicide activity data for various compounds of this invention, which are shown by compound No. in Tables 1-7, are shown in Tables 8 and 9.

[2] = test system: field corn (Zea mays L., var. Dekalb 527, CORN); assay: Pre-emerge crop damage, greenhouse screen, CORN
Description: as §1, §2, §3, §4, §5

[3] = test system: velvetleaf (Abutilon theophrasti, ABUTH); assay: Pre-emerge herbicidal activity, greenhouse screen, ABUTH
Description: as §1, §2, §3, §4, §5

[4] = test system: green foxtail (Setaria viridis, SETVI); assay: Pre-emerge herbicidal activity, greenhouse screen, SETVI
Description: as §1, §2, §3, §4, §5

[5] = test system: barnyardgrass (Echinochloa crus-galli, ECHCG); assay: Post-emerge herbicidal activity, greenhouse screen, ECHCG
Description: as §1, §2, §3, §4, §5

[6] = test system: velvetleaf (Abutilon theophrasti, ABUTH); assay: Post-emerge herbicidal activity, greenhouse screen, ABUTH
Description: as §1, §2, §3, §4, §5

[7] = test system: barnyardgrass (Echinochloa crus-galli, ECHCG); assay: Pre-emerge herbicidal activity, greenhouse screen, ECHCG
Description: as §1, §2, §3, §4, §5

[8] = test system: ivyleaf morningglory (Ipomoea hederacea, IPOHE); assay: Post-emerge herbicidal activity, greenhouse screen, IPOHE
Description: as §1, §2, §3, §4, §5

[9] = test system: johnsongrass (Sorghum halepense, SORHA); assay: Post-emerge herbicidal activity, greenhouse screen, SORHA
Description: as §1, §2, §3, §4, §5

[10] = test system: soybean (Glycine max L., var. Pella 86, SOY); assay: Pre-emerge crop damage, greenhouse screen, SOY
Description: as §1, §2, §3, §4, §5

[11] = test system: upland rice (Oryza sp., var. Tebonnet, RICE); assay: Post-emerge crop damage, greenhouse screen, RICE
Description: as §1, §2, §3, §4, §5

[12] = test system: large crabgrass (Digitaria sanguinalis, DIGSA); assay: Post-emerge herbicidal activity, greenhouse screen, DIGSA
Description: as §1, §2, §3, §4, §5

[13] = test system: green foxtail (Setaria viridis, SETVI); assay: Post-emerge herbicidal activity, greenhouse screen, SETVI
Description: as §1, §2, §3, §4, §5

[14] = test system: large crabgrass (Digitaria sanguinalis, DIGSA); assay: Pre-emerge herbicidal activity, greenhouse screen, DIGSA
Description: as §1, §2, §3, §4, §5

[15] = test system: field corn (Zea mays L., var. Dekalb 527, CORN); assay: Post-emerge crop damage, greenhouse screen, CORN
Description: as §1, §2, §3, §4, §5

[16] = test system: redroot pigweed (Amaranthus retroflexus, AMARE); assay: Pre-emerge herbicidal activity, greenhouse screen, AMARE
Description: as §1, §2, §3, §4, §5

[17] = test system: lambsquarters (Chenopodium album, CHEAL); assay: Pre-emerge herbicidal activity, greenhouse screen, CHEAL
Description: as §1, §2, §3, §4, §5

[18] = test system: sicklepod (Cassia obtusifolia, CASOB); assay: Pre-emerge herbicidal activity, greenhouse screen, CASOB
Description: as §1, §2, §3, §4, §5

[19] = test system: common ragweed (Ambrosia artemisiifolia L., AMBEL); assay: Pre-emerge herbicidal activity, greenhouse screen, AMBEL
Description: as §1, §2, §3, §4, §5

[20] = test system: johnsongrass (Sorghum halepense, SORHA); assay: Pre-emerge herbicidal activity, greenhouse screen, SORHA
Description: as §1, §2, §3, §4, §5

[21] = test system: common ragweed (Ambrosia artemisiifolia L., AMBEL); assay: Post-emerge herbicidal activity, greenhouse screen, AMBEL
Description: as §1, §2, §3, §4, §5

[22] = test system: lambsquarters (Chenopodium album, CHEAL); assay: Post-emerge herbicidal activity, greenhouse screen, CHEAL
Description: as §1, §2, §3, §4, §5

[23] = test system: redroot pigweed (Amaranthus retroflexus, AMARE); assay: Post-emerge herbicidal activity, greenhouse screen, AMARE
Description: as §1, §2, §3, §4, §5

[24] = test system: soybean (Glycine max L., var. Pella 86, SOY); assay: Post-emerge crop damage, greenhouse screen, SOY
Description: as §1, §2, §3, §4, §5

[25] = test system: sicklepod (Cassia obtusifolia, CASOB); assay: Post-emerge herbicidal activity, greenhouse screen, CASOB
Description: as §1, §2, §3, §4, §5

[26] = test system: ivyleaf morningglory (Ipomoea hederacea, IPOHE); assay: Pre-emerge herbicidal activity, greenhouse screen, IPOHE
Description: as §1, §2, §3, §4, §5

## Cn1c(C(F)(F)F)cc(=O)n(-c2ccc(Cl)c3nc(C(C)(C)C)oc23)c1=S [Compound 1-4]
[1]; 63 g ai/ha
  Pre-emerge Herbicidal Activity RICE (crop damage): 60
[1]; 250 g ai/ha
  Pre-emerge Herbicidal Activity RICE (crop damage): 90
[2]; 63 g ai/ha
  Pre-emerge Herbicidal Activity CORN (crop damage): 15
[2]; 250 g ai/ha
  Pre-emerge Herbicidal Activity CORN (crop damage): 85
[3]; 63 g ai/ha
  Pre-emerge Herbicidal Activity ABUTH: 100
[3]; 250 g ai/ha
  Pre-emerge Herbicidal Activity ABUTH: 100
[4]; 63 g ai/ha
  Pre-emerge Herbicidal Activity SETVI: 100
[4]; 250 g ai/ha
  Pre-emerge Herbicidal Activity SETVI: 100
[5]; 63 g ai/ha
  Post-emerge Herbicidal Activity ECHCG: 90
[5]; 250 g ai/ha
  Post-emerge Herbicidal Activity ECHCG: 100
[6]; 63 g ai/ha
  Post-emerge Herbicidal Activity ABUTH: 100
[6]; 250 g ai/ha
  Post-emerge Herbicidal Activity ABUTH: 100
[7]; 63 g ai/ha
  Pre-emerge Herbicidal Activity ECHCG: 100
[7]; 250 g ai/ha
  Pre-emerge Herbicidal Activity ECHCG: 100
[8]; 63 g ai/ha
  Post-emerge Herbicidal Activity IPOHE: 95
[8]; 250 g ai/ha
  Post-emerge Herbicidal Activity IPOHE: 100
[9]; 63 g ai/ha
  Post-emerge Herbicidal Activity SORHA: 20
[9]; 250 g ai/ha
  Post-emerge Herbicidal Activity SORHA: 30
[10]; 63 g ai/ha
  Pre-emerge Herbicidal Activity SOY (crop damage): 10
[10]; 250 g ai/ha
  Pre-emerge Herbicidal Activity SOY (crop damage): 80
[11]; 63 g ai/ha
  Post-emerge Herbicidal Activity RICE (crop damage): 60
[11]; 250 g ai/ha
  Post-emerge Herbicidal Activity RICE (crop damage): 65
[12]; 63 g ai/ha
  Post-emerge Herbicidal Activity DIGSA: 0
[12]; 250 g ai/ha
  Post-emerge Herbicidal Activity DIGSA: 20
[13]; 63 g ai/ha
  Post-emerge Herbicidal Activity SETVI: 50
[13]; 250 g ai/ha
  Post-emerge Herbicidal Activity SETVI: 100
[14]; 63 g ai/ha
  Pre-emerge Herbicidal Activity DIGSA: 100
[14]; 250 g ai/ha
  Pre-emerge Herbicidal Activity DIGSA: 100
[15]; 63 g ai/ha
  Post-emerge Herbicidal Activity CORN (crop damage): 0
[15]; 250 g ai/ha
  Post-emerge Herbicidal Activity CORN (crop damage): 30
[16]; 63 g ai/ha
  Pre-emerge Herbicidal Activity AMARE: 100
[16]; 250 g ai/ha
  Pre-emerge Herbicidal Activity AMARE: 100
[17]; 63 g ai/ha
  Pre-emerge Herbicidal Activity CHEAL: 100
[17]; 250 g ai/ha
  Pre-emerge Herbicidal Activity CHEAL: 100
[18]; 63 g ai/ha
  Pre-emerge Herbicidal Activity CASOB: 70
[18]; 250 g ai/ha
  Pre-emerge Herbicidal Activity CASOB: 100
[19]; 63 g ai/ha
  Pre-emerge Herbicidal Activity AMBEL: 80
[19]; 250 g ai/ha
  Pre-emerge Herbicidal Activity AMBEL: 100
[20]; 63 g ai/ha
  Pre-emerge Herbicidal Activity SORHA: 100
[20]; 250 g ai/ha
  Pre-emerge Herbicidal Activity SORHA: 100
[21]; 63 g ai/ha
  Post-emerge Herbicidal Activity AMBEL: 90
[21]; 250 g ai/ha
  Post-emerge Herbicidal Activity AMBEL: 90
[22]; 63 g ai/ha
  Post-emerge Herbicidal Activity CHEAL: 100
[22]; 250 g ai/ha
  Post-emerge Herbicidal Activity CHEAL: 100
[23]; 63 g ai/ha
  Post-emerge Herbicidal Activity AMARE: 100
[23]; 250 g ai/ha
  Post-emerge Herbicidal Activity AMARE: 100
[24]; 63 g ai/ha
  Post-emerge Herbicidal Activity SOY (crop damage): 50
[24]; 250 g ai/ha
  Post-emerge Herbicidal Activity SOY (crop damage): 50
[25]; 63 g ai/ha
  Post-emerge Herbicidal Activity CASOB: 60
[25]; 250 g ai/ha
  Post-emerge Herbicidal Activity CASOB: 99
[26]; 63 g ai/ha
  Pre-emerge Herbicidal Activity IPOHE: 99
[26]; 250 g ai/ha
  Pre-emerge Herbicidal Activity IPOHE: 100

From patent US20040018941A1, “Fused-benzene derivatives of thiouracil, herbicidal and desiccant compositions contaning them” (ISHIHARA SANGYO KAISHA, LTD., priority 2002, published 2004)
